Several values for one entry are separate records, joined by “and”; a condition that tells them apart may be missing. Equal values may be shown once. Read-outs that look alike come from different tables or passages of the source.
Key:
[1] = target: T1, pooled human liver microsomes (pHLMs) (Homo sapiens, UniProt P05177); experiment: EROD counterscreen in pooled human liver microsomes; format: biochemical; conditions: for IC50: human, microsomes; for SI 1B1:HLM: selectivity index
T1 sequence (P05177 2-516): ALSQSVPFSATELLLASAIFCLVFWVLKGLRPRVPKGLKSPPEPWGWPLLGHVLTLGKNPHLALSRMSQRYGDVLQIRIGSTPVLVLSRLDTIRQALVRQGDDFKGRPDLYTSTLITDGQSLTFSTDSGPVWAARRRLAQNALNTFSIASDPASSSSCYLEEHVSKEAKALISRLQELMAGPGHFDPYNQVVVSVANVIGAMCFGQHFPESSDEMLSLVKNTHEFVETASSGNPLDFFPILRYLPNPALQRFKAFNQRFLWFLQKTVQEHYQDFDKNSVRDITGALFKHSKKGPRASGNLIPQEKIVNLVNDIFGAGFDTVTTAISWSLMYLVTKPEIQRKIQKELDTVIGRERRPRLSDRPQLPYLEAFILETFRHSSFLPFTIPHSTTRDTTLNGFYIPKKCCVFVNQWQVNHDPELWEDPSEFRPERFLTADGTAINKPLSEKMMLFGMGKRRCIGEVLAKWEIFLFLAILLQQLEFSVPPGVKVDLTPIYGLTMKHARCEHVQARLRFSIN
Text: (§1) Human liver microsomes were used as a counterscreen to experimentally determine the magnitude of inhibitor selectivity.

[2] = Cytotoxicity, resazurin, 72 hours after compound addition; format: cell-based; conditions: human, HEK cells
Procedure: (§2) Cytotoxicity was assessed at 72 hours after compound addition using resazurin. The compounds that function as selective 1B1 inhibitors had no effect on cell health. This is an essential feature for any chemopreventative agent or molecules intended to block the detrimental action of an enzyme.

[3] = target: T2, CYP1B1 (Homo sapiens, UniProt Q16678); experiment: EROD assay in inducible CYP1B1 cell line; format: cell-based
T2 construct: expressed in transfected cells
T2 sequence (Q16678 1-543): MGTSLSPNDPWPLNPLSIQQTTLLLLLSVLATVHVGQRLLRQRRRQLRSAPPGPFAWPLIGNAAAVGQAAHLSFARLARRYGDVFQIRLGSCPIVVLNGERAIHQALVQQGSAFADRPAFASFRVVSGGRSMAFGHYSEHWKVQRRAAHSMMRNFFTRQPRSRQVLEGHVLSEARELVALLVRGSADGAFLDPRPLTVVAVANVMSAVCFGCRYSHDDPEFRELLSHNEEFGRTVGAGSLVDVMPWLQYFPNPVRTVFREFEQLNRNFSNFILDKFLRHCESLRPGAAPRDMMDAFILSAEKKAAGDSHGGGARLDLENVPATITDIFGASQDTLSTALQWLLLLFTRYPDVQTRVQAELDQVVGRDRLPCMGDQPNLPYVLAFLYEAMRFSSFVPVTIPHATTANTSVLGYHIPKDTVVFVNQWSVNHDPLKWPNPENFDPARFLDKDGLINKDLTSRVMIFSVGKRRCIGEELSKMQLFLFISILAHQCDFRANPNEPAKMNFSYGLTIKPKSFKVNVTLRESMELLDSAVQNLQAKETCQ
Procedure: (§3) The activity of the inhibitors was assessed in a novel cell based assay generated for the purpose of this project. Enzymatic turnover of CYP1B1 was measured using the ethoxy-resorufin-O-deethylase (EROD) assay with the fluorescent substrate, resorufin ethyl ether. Cell lines were generated where the gene for CYP1B1 alone or CYP1B1 and cytochrome P450 reductase (CPR) were both under the control of an inducible promoter. A cell line was generated for counter screening where the gene for CYP1A1 was used. CYP1A1 is the closest family member to CYP1B1.

[4] = target: T3, CYP1A1 (Homo sapiens, UniProt P04798); experiment: EROD assay in CYP1A1 counter-screen cell line; format: cell-based; conditions: for SI 1B1:1A1: selectivity index
T3 construct: expressed in transfected cells
T3 sequence (P04798 1-512): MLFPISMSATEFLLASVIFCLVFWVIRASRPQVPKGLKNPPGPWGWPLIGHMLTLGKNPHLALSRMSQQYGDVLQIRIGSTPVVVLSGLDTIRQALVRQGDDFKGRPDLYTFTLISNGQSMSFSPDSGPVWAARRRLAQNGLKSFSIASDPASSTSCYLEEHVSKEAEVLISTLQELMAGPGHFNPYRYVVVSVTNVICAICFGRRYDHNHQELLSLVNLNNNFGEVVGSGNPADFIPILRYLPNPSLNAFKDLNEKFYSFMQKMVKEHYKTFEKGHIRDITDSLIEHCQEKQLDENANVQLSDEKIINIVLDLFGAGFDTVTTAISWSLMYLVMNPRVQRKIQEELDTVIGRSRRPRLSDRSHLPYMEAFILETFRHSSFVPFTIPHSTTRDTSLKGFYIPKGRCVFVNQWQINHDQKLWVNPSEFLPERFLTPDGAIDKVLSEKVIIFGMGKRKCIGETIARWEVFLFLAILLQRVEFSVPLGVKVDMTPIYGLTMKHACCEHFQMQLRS
Procedure: as §3

[5] = target: T1, pooled human liver microsomes (pHLMs); experiment: EROD counterscreen in pooled human liver microsomes; format: biochemical; set-up: IC50 pHLM; EROD assay; conditions: human, microsomes, Table 2; EROD assay
Text: as §1

[6] = test system: HEK; experiment: Cytotoxicity, resazurin, 72 hours after compound addition; format: cell-based; conditions: Table 3, HEK
Procedure: as §2

[7] = Table 1, 72 hours, resazurin, read-out: Cytotoxicity IC50
[8] = Table 2, EROD assay, read-out: IC50 CYP1B1
[9] = Table 2, EROD assay, read-out: IC50 CYP1A1
[10] = human, probe resorufin ethyl ether, Table 3, read-out: IC50 1A1

| Compound | IC50 ([3]; Table 3, read-out: IC50 1B1) | IC50 ([4]; Table 3, read-out: IC50 1A1) | IC50 ([1]; Table 3, read-out: IC50 pHLM) [nM] | HEK cell viability % at 10 μM [6] [%] | further results |
| --- | --- | --- | --- | --- | --- |
| N#CCOc1ccc(/C=C/c2ccncn2)cc1 [GL543] | 4.9 nM and 6.4 nM | > 10000 nM |  |  | IC50 ([1]; Table 1, read-out: hLM IC50): > 10000 nM; IC50 at 72 h [2, 7]: > 10000 nM; IC50 ([3]; Table 1, read-out: CYP1B1 IC50): 4.9 nM; IC50 ([4]; Table 1, read-out: CYP1A1 IC50): > 10000 nM |
| COc1ccc(-c2csc(-c3ccc(O)cc3)n2)c(OC)c1 [GL650] |  |  |  |  | SI 1B1:HLM [1]: 89.7; IC50 [3, 8]: 61.9 nM; IC50 [5]: 5550 nM; IC50 [4, 9]: 1960 nM; SI 1B1:1A1 [4]: 32 |
| COc1cc(/C=C/c2cnccn2)cc(OC)c1 [GL437] | 660 nM | 4280 nM and 3290 nM | 5270 ± 1600 | 103.1 |  |
| C#CCOc1ccc(/C=C/c2ccncn2)cc1 [GL508] | 105 nM | 5600 nM | 32900 | 93.4 | IC50 [4, 10]: 10000 nM |
| C#CCn1c(-c2ccc(OC)cc2OC)nc2ccc(I)cc2c1=O [GL514] | 660 nM | 4420 nM and 3500 nM | 105000 | 72.5 |  |
| COc1ccc(/C=C/c2cnccn2)c(OC)c1 [GL435] | 510 nM | 2600 nM | 1570 ± 290 | 71.4 |  |
| C#CCOc1ccc(-c2nc3ccc(I)cc3c(=O)[nH]2)cc1 [GL516] | 14 nM | 4580 nM and 2460 nM and 1900 nM | 126000 | 40.8 |  |
| COc1cc(/C=C/c2ccncn2)cc(OC)c1 [GL443] | 760 nM | > 10000 nM | 2300 ± 980 | 105.2 |  |
| COc1ccc(/C=C/c2ccncn2)c(OC)c1 [GL433] | 76 nM |  | 910 ± 370 |  | IC50 ([1]; Table 1, read-out: hLM IC50): 1100 nM; IC50 at 72 h [2, 7]: > 10000 nM; IC50 ([6]; read-out: HEK cytotoxicity): > 10000 nM; activity as CYP1B1 inhibitor, in words [3]: potent; IC50 ([3]; Table 1, read-out: CYP1B1 IC50): 76 nM; IC50 ([4]; human, probe resorufin ethyl ether, Table 1, read-out: CYP1A1 IC50): 10000 nM; IC50 [4, 10]: 10000 nM |
| N#CCOc1ccc(-c2nc3ccccc3c(=O)[nH]2)cc1 [GL520] | 0.88 nM and 0.92 nM | 2570 nM | 1740 | 89 |  |
| COc1cc(OC)cc(-c2nc(-c3cccc(C(F)(F)F)c3)cs2)c1 [GL684] |  |  |  |  | SI 1B1:HLM [1]: >1000000; IC50 [3, 8]: < 0.01 nM; IC50 [5]: > 10000 nM; IC50 [4, 9]: 2780 nM; SI 1B1:1A1 [4]: >27800 |
| Oc1ccc(-c2csc(-c3ccccn3)n2)cc1 [GL672] |  |  |  |  | SI 1B1:HLM [1]: 1.63; IC50 [3, 8]: 1020 nM; IC50 [5]: 1650 nM; IC50 [4, 9]: 1320 nM; SI 1B1:1A1 [4]: 1.3 |
| COc1ccc(/C=C/c2cccnc2)c(OC)c1 [GL457] | 310 nM | 403 nM and 360 nM | 420 ± 240 | 91.5 |  |
| COc1ccc(-c2csc(-c3cccnc3)n2)c(OC)c1 [GL654] |  |  |  |  | SI 1B1:HLM [1]: 0.00082; IC50 [3, 8]: 19.8 nM; IC50 [5]: 0.1 nM; IC50 [4, 9]: 151 nM; SI 1B1:1A1 [4]: 7.6 |
| O=c1[nH]c(-c2ccc(OC/C(I)=C\I)cc2)nc2ccccc12 [GL511] | 11.8 nM | > 10000 nM | 7710 | 64.3 |  |
| COc1ccc(/C=C/c2cncnc2)c(OC)c1 [GL458] | 2510 nM | 4130 nM and 2500 nM | 2260 ± 1050 | 95.8 |  |
| COc1cc(/C=C/c2ccncn2)cc(OC)c1OC [GL465] | 260 nM | 730 nM and 740 nM | 4400 ± 1710 | 83.4 |  |
| N#CCOc1ccc(-c2nc(OCCCNC(=O)OCCOCCOCCOC(=O)NC34CC5CC(CC(C5)C3)C4)c3ccccc3n2)cc1 [GL581] | < 2.5 nM | 3580 nM | > 10000 |  | IC50 at 72 h [2, 7]: > 10000 nM; IC50 ([3]; Table 1, read-out: CYP1B1 IC50): 0.12 nM; IC50 ([4]; Table 1, read-out: CYP1A1 IC50): 3600 nM |
| Oc1ccc(-c2csc(-c3cccnc3)n2)cc1 [GL671] |  |  |  |  | SI 1B1:HLM [1]: 0.024; IC50 [3, 8]: 2230 nM; IC50 [5]: 526 nM; IC50 [4, 9]: 1410 nM; SI 1B1:1A1 [4]: 0.63 |
| COc1ccc(-c2nc3ccc(I)cc3c(=O)[nH]2)c(OC)c1 [GL513] | 36 nM | 121 nM and 75 nM and 91 nM | 26200 | 83.4 |  |
| COc1ccc(-c2nc(-c3ccc(F)c(C(F)(F)F)c3)cs2)c(OC)c1 [GL674] |  |  |  |  | SI 1B1:HLM [1]: >10204; IC50 [3, 8]: 0.98 nM; IC50 [5]: > 10000 nM; IC50 [4, 9]: 5080 nM; SI 1B1:1A1 [4]: 5187 |
| COc1ccc(-c2nc(O)c3ccccc3n2)c(OC)c1 [GL512] | 11.6 nM | 2400 nM and 1040 nM | 16900 | 85.3 |  |
| COc1cc(OC)cc(-c2nc(-c3ccc(F)cc3)cs2)c1 [GL683] |  |  |  |  | IC50 [3, 8]: < 0.01 nM; IC50 [5]: > 10000 nM |
| c1ccc(-c2nc(-c3cccnc3)cs2)nc1 [GL681] |  |  |  |  | SI 1B1:HLM [1]: 0.14; IC50 [3, 8]: 2390 nM; IC50 [5]: 3240 nM; IC50 [4, 9]: 85 nM; SI 1B1:1A1 [4]: 0.035 |
| COc1cc(OC)c(/C=C/c2ccncn2)c(OC)c1 [GL456] | 210 nM | > 10000 nM | 150 ± 80 | 93.6 | IC50 [4, 10]: 10000 nM |
| COc1ccc(-c2nc3ccccc3c(=O)n2C)c(OC)c1 [GL517] | > 500 nM | > 10000 nM | 146000 | 107 |  |
| COc1ccc(/C=C/c2ccccc2)c(OC)c1 [GL469] |  | 4460 nM and > 10000 nM | 6000 | 124.2 |  |
| C#CCOc1ccc(-c2nc3ccccc3c(=O)[nH]2)cc1 [GL510] |  |  | 857 |  | IC50 at 72 h ([2]; Table 3, HEK, read-out: HEK cytotoxicity): 406 nM |
